{
  "source": "patent US9730949B2",
  "about": "“Angiotensin converting enzyme inhibitors for treating optic neuropathy or congenital optic atrophy” (priority 2012, dated 2017)",
  "type_in_all_cases": "in vivo, human",
  "key": {"[1]": {"test_system": "optic neuropathy or congenital optic atrophy", "test": "Other ACE inhibitors in patients with the same optic neuropathy or congenital optic atrophy as in Examples 1 to 5", "conditions": "patients as in Examples 1 to 5, similar procedures; present tense, no data", "protocol": "Fosinoprilate, trandolaprilate, moexiprilate, quinaprilate, enalaprilate, perindoprilate and benazeprilate, as well as captopril and lisinopril are also tested in patients having the same optic neuropathy or congenital optic atrophy as in Examples 1 to 5 using similar procedures."}, "[2]": {"test_system": "toxication by ingestion of methyl alcohol", "test": "Visual acuity after treatment in patients with toxication by ingestion of methyl alcohol", "protocol": "2 patients (SR and WW) suffering from toxication by ingestion of methyl alcohol has bad visual acuity. FIG. 6 is a fluoangiography of SR prior to treatment. FIG. 7 is an optical coherence tomography scan of SR before treatment.\nOne patient was administered 2% (w/v) ramprilate in an eye drop formulation twice a day for 3 months, while the other patient was administered 2% (w/v) ramprilate in via an intravitreal injection ramiprilate in a quantity of 0.1 to 0.2 ml, which was injected once every 15 days for a total of three injections."}, "Leber's optic neuropathy": {"test_system": "Leber's optic neuropathy", "test": "Visual acuity after treatment in patients with Leber's optic neuropathy", "conditions": "intravitreal 2% (w/v), 0.1 to 0.2 ml, once every 15 days, three injections", "protocol": "Patient two has Leber's optic neuropathy with a visual acuity of 1/20 in the right eye and zero in the left eye prior to treatment.\nAn intraocular injection (intravitreal) of 2% (w/v) ramiprilate in a quantify of 0.1 to 0.2 ml, which was injected once every 15 days for a total of three injections. The visual acuity was measured after this treatment. The results of 2/10 in the right eye and 1/20 in the left eye were achieved,\nPatient one has Leber's optic neuropathy and had only bright perceptions in two eyes. Visual acuity was measured prior to treatment.\nAn intraocular injection (intravitreal) of 2% (w/v) ramiprilate in a quantity of 0.1 to 0.2 ml, which was infected once every 15 days for a total of three injections. The visual acuity was measured after this treatment. The visual acuity was 2/10 for both eyes."}, "[3]": {"test_system": "dominant recessive congenital optic atrophy", "test": "Visual acuity after treatment in patients with dominant recessive congenital optic atrophy", "conditions": "2 patients; eye drops 2% (w/v), 2 times per day for 3 months", "protocol": "2 patients that have dominant recessive congenital optic atrophy had bad visual acuity.\nThese 2 patients were treated with eye drops containing 2% (w/v) ramiprilate 2 times per day for a duration of 3 months."}, "[4]": {"test_system": "bilateral asymmetric anterior optic neuropathy ischemia", "test": "Visual acuity after treatment in a patient with anterior optic neuropathy ischemia", "conditions": "patient three; intravitreal 2% (w/v), 0.1 to 0.2 ml, once every 15 days, three injections; 1/10 in both eyes prior to treatment", "protocol": "FIGS. 3 and 4 show a fluoangiography of MM before treatment.\nMM was administered an intravitreal injection of 2% (w/v) ramiprilate in a quantify of 0.1 to 0.2 ml, which was injected once every 15 days for a total of three injections. The visual acuity was then taken and was 5/10 for both eyes."}, "[5]": {"test_system": "central artery occlusion of the retina", "test": "Visual acuity after treatment in patients with central artery occlusion of the retina", "protocol": "FIG. 5 is a fundus photograph of patient four before treatment.\nOne was administered 2% (w/v) ramprilate in an eye drop formulation twice a day for 3 months, while the other was administered 2% (w/v) ramprilate in via an intravitreal injection ramiprilate in a quantity of 0.1 to 0.2 ml, which was injected once every 15 days for a total of three injections."}},
  "data": [
    {"smiles": "CCC[C@H](N[C@@H](C)C(=O)N1[C@H](C(=O)O)C[C@@H]2CCCC[C@@H]21)C(=O)O", "note": "[perindoprilate]", "values": [
      {"measurement": "visual acuity", "setting": "[1]", "value": "improvement in visual acuity"}
    ]},
    {"smiles": "COc1cc2c(cc1OC)CN(C(=O)[C@H](C)N[C@@H](CCc1ccccc1)C(=O)O)[C@H](C(=O)O)C2", "note": "[moexiprilate]", "values": [
      {"measurement": "visual acuity", "setting": "[1]", "value": "improvement in visual acuity"}
    ]},
    {"smiles": "O=C(O)CN1C(=O)[C@@H](N[C@@H](CCc2ccccc2)C(=O)O)CCc2ccccc21", "note": "[benazeprilate]", "values": [
      {"measurement": "visual acuity", "setting": "[1]", "value": "improvement in visual acuity"}
    ]},
    {"smiles": "NCCCC[C@H](N[C@@H](CCc1ccccc1)C(=O)O)C(=O)N1CCC[C@H]1C(=O)O", "note": "[lisinopril]", "values": [
      {"measurement": "visual acuity", "setting": "[1]", "value": "improvement in visual acuity"}
    ]},
    {"smiles": "C[C@H](N[C@@H](CCc1ccccc1)C(=O)O)C(=O)N1CCC[C@H]1C(=O)O", "note": "[enalaprilate]", "values": [
      {"measurement": "visual acuity", "setting": "[1]", "value": "improvement in visual acuity"}
    ]},
    {"smiles": "C[C@H](N[C@@H](CCc1ccccc1)C(=O)O)C(=O)N1Cc2ccccc2C[C@H]1C(=O)O", "note": "[quinaprilate]", "values": [
      {"measurement": "visual acuity", "setting": "[1]", "value": "improvement in visual acuity"}
    ]},
    {"smiles": "C[C@H](N[C@@H](CCc1ccccc1)C(=O)O)C(=O)N1[C@H](C(=O)O)C[C@H]2CCCC[C@@H]21", "note": "[trandolaprilate]", "values": [
      {"measurement": "visual acuity", "setting": "[1]", "value": "improvement in visual acuity"}
    ]},
    {"smiles": "CC(NC(CCc1ccccc1)C(=O)O)C(=O)N1C(C(=O)O)CC2CCCC21", "note": "(stereo not drawn) [ramiprilate]", "values": [
      {"measurement": "vision as indicated by visual acuity", "setting": "[2]; one patient (beta), eye drop formulation 2% (w/v) twice a day for 3 months", "value": "improvement in vision"},
      {"measurement": "vision as indicated by visual acuity", "setting": "[2]; other patient (beta), intravitreal 2% (w/v), 0.1 to 0.2 ml, once every 15 days, three injections", "value": "improvement in vision"},
      {"measurement": "visual acuity, both eyes, after treatment", "setting": "Leber's optic neuropathy; patient one, only bright perceptions in two eyes before", "value": "2/10"},
      {"measurement": "visual acuity, right eye, after treatment", "setting": "Leber's optic neuropathy; patient two, 1/20 prior to treatment", "value": "2/10"},
      {"measurement": "visual acuity, left eye, after treatment", "setting": "Leber's optic neuropathy; patient two, zero prior to treatment", "value": "1/20"},
      {"measurement": "vision as indicated by visual acuity", "setting": "[3]", "value": "greatly improved"},
      {"measurement": "visual acuity, both eyes, after treatment", "setting": "[4]", "value": "5/10"},
      {"measurement": "vision as indicated by visual acuity", "setting": "[5]; one patient (alpha), eye drop formulation 2% (w/v) twice a day for 3 months", "value": "improvement in vision"},
      {"measurement": "vision as indicated by visual acuity", "setting": "[5]; other patient (alpha), intravitreal 2% (w/v), 0.1 to 0.2 ml, once every 15 days, three injections", "value": "improvement in vision"}
    ]},
    {"smiles": "C[C@H](CS)C(=O)N1CCC[C@H]1C(=O)O", "note": "[captopril]", "values": [
      {"measurement": "visual acuity", "setting": "[1]", "value": "improvement in visual acuity"}
    ]},
    {"smiles": "O=C(O)[C@@H]1C[C@@H](C2CCCCC2)CN1C(=O)CP(=O)(O)CCCCc1ccccc1", "note": "[Fosinoprilate, fosinoprilate]", "values": [
      {"measurement": "visual acuity", "setting": "[1]", "value": "improvement in visual acuity"}
    ]}
  ]
}
